The values below come from patent US20230065953A1, “NOVEL HETEROARYL-TRIAZOLE COMPOUNDS AS PESTICIDES” (Bayer Aktiengesellschaft, priority 2019, published 2023).

The structures appear in SMILES notation.

The mortality is the share of the test organisms that died.

Type in all cases: in vivo
The test system of experiment [1] is cattle ticks (Rhipicephalus microplus) strain Parkhurst, SP-resistant. The experiment is described as follows: Rhipicephalus (Boophilus) microplus dip test. The conditions noted are these: 100 ppm, egg deposition after 7 days. The protocol: Rhipicephalus (Boophilus) Microplus—Dip Test
Test animal: cattle ticks (Rhipicephalus microplus) strain Parkhurst, SP-resistant
Solvent: dimethyl sulfoxide
To produce a suitable preparation of active compound, 10 mg of active compound are dissolved in 0.5 mL solvent, and the concentrate is diluted with water to the desired concentration.
This compound solution is pipetted into tubes. 8-10 engorged, adult, female cattle ticks (Rhipicephalus microplus) are placed in perforated tubes. These tubes are immersed in the aqueous compound solution until the ticks are completely moistened. After the liquid has drained off, the ticks are transferred to a filter paper in a plastic tray and stored in a climate chamber.
After 7 days egg deposition of fertile eggs is monitored. Eggs where fertility is not visible are stored in a climate chamber till hatching after about 42 days. An efficacy of 100% means all eggs are infertile; 0% means all eggs are fertile.

The subject of experiment [2] is adult unfed cat fleas (Ctenocephalides felis). As to the kind of experiment: Ctenocephalides felis oral test. The conditions noted are these: 48 h. Summed up: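 About 20 adult unfed fleas fed through parafilm on cattle blood containing compound (DMSO stock diluted in blood), blood held at 37 °C and fleas at room temperature. Mortality (%) scored after 2 days.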
For experiment [3], the system named is adult mosquitoes Aedes aegypti strain MONHEIM. As to the kind of experiment: Aedes aegypti test (AEDSAE surface treatment & contact assay). The conditions noted are these: 24 hours after contact, read-out: efficacy (mortality); for mortality at 4 mg/m2: surface concentration 4 mg/m^2, 30 min exposure; for mortality at 20 mg/m2: surface concentration 20 mg/m^2, 30 min exposure. In outline:
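Test compound in acetone (2 mg/ml) with 2000 ppm rapeseed oil methyl ester was dried onto a glazed tile. Adult Aedes aegypti MONHEIM were exposed to the treated surface for 30 minutes. Percent mortality was scored 24 hours after contact.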

Experiment [4] concerns adult mosquitoes Culex quinquefasciatus strain P00. The experiment is described as follows: whole plant or invertebrate. The conditions noted are these: read-out: efficacy (mortality). The procedure:
Culex quinquefasciatus Test (CULXFA Surface Treatment & Contact Assay) • Solvent: Aceton+2000 ppm rapeseed oil methyl ester (RME)
In order to produce a sufficient, active ingredient containing solution it is necessary to solve the test compound in the solvent-mix (acetone at 2 mg/ml/RME 2 OOOppm). This solution is pipetted onto a glazed tile and after evaporation of the acetone, adult mosquitoes of the species Culex quinquefasciatus strain P00 are placed onto the dried surface. The exposure time is 30 minutes.
(§1) Mortality in percent (%) is determined 24 hours after contact of the insects to the treated surface. 100% mortality means that all tested insects are dead, whereas 0% means that no insect died.

Experiment [5] has as its system adult mosquitoes Anopheles funestus strain FUMOZ-R. The experiment is described as follows: Anopheles funestus test (ANPHFU surface treatment & contact assay). The conditions noted are these: surface concentration 4 mg/m^2, 30 min exposure, 24 hours after contact, read-out: efficacy (mortality). The protocol: Anopheles funestus Test (ANPHFU Surface Treatment & Contact Assay) • Solvent: Aceton+2000 ppm rapeseed oil methyl ester (RME)
In order to produce a sufficient, active ingredient containing solution it is necessary to solve the test compound in the solvent-mix (acetone at 2 mg/ml/RME 2000 ppm). This solution is pipetted onto a glazed tile and after evaporation of the acetone, adult mosquitoes of the species Anopheles funestus strain FUMOZ-R (Hunt et al., Med. Vet. Entomol. 2005 September; 19(3): 271-275) are placed onto the dried surface. The exposure time is 30 minutes.
as §1

In experiment [6] the test system is green peach aphid (Myzus persicae). The experiment is described as follows: Myzus persicae spray test. The conditions noted are these: foliar, 120 h, Chinese cabbage leaf disks, after 5 days. In outline: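 Percent mortality read 5 days after spraying, where 100% is total kill and 0% none. The spray contained compound in acetone plus dimethylformamide, diluted with 1000 ppm emulsifier water. It was applied to Brassica pekinensis leaf disks carrying mixed-instar green peach aphids.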

For experiment [7], the system named is brown planthopper (Nilaparvata lugens). As to the kind of experiment: Nilaparvata lugens spray test. As to conditions: 96 h, 100 g/ha, rice plants, after 4 days. The protocol: Nilaparvata lugens—Spray Test • Solvent: 78.0 parts by weight of acetone • 1.5 parts by weight of dimethylformamide • Emulsifier: alkylarylpolyglycol ether
To produce a suitable preparation of active compound, 1 part by weight of active compound is mixed with the stated amount of solvents and is diluted with water, containing an emulsifier concentration of 1000 ppm, to the desired concentration. Further test concentrations are prepared by dilution with emulsifier containing water.
Rice plants (Oryza sativa) are sprayed with a preparation of the active ingredient of the desired concentration and the plants are infested with the brown planthopper (Nilaparvata lugens).
After 4 days mortality in % is determined. 100% means all planthoppers have been killed and 0% means none of the planthoppers have been killed.

In experiment [8] the test system is larvae of the southern green stink bug (Nezara viridula). As to the kind of experiment: Nezara viridula spray test. The conditions noted are these: in Hordeum vulgare, 96 h. Summed up:
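Mortality (%) of stink bug larvae on treated barley (Hordeum vulgare) was scored 4 days after infestation. Test solutions came from an acetone/DMF concentrate diluted with water containing 1000 ppm emulsifier and were sprayed onto plants before larvae were added.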

Take `C[C@H](NC(=O)c1cc(C(F)(F)F)cc(C(F)(F)F)c1)c1ncnn1-c1ncc(C#N)s1` [I-2]: the “efficacy (infertile eggs)” value in experiment [1] amounted to 100%. The compound also showed a mortality at 100 ppm in experiment [2] of 100%. Moreover, the mortality at 4 mg/m2 in experiment [3], in experiment [4] and in experiment [5] was 80 to 100% each time. The mortality at 20 mg/m2 in experiment [3] lay within 80 to 100%.
`Cc1nc([C@H](C)NC(=O)c2cc(C(F)(F)F)cc(C(F)(F)F)c2)n(-c2ncc(C(=O)N(C)CC3CC3)s2)n1` [I-4]: in experiment [2], the mortality at 100 ppm is 100%. The mortality at 100 g/ha in experiment [6] and in experiment [7] was 90% throughout. Also, the mortality at 20 mg/m2 in experiment [3] is 80 to 100%.
On to `Cc1nc([C@H](C)NC(=O)c2cc(C(F)(F)F)cc(C(F)(F)F)c2)n(-c2ncc(C(=O)N(C)C)s2)n1` [I-5, 2-(5-{(1S)-1-[3,5-bis(trifluoromethyl)benzamido]ethyl}-3-methyl-1H-1,2,4-triazol-1-yl)-N,N-dimethyl-1,3-thiazole-5-carboxamide], for which the “efficacy (infertile eggs)” value in experiment [1] stood at 100%. Besides, in experiment [2], the mortality at 100 ppm was 100%. Also, the mortality at 100 g/ha amounted to 90% in experiment [6] and 100% in experiment [7].
Take `CCN(C)C(=O)c1cnc(-n2nc(C)nc2[C@H](C)NC(=O)c2cc(C(F)(F)F)cc(C(F)(F)F)c2)s1` [I-6]: in experiment [1], the “efficacy (infertile eggs)” value turned out to be 100%. Also, the mortality at 100 ppm in experiment [2] came out at 100%. Besides, the mortality at 100 g/ha in experiment [6] and in experiment [7] was 100% throughout. Also, the mortality at 4 mg/m2 in experiment [3] was 80 to 100%.
On to `Cc1nc([C@H](C)NC(=O)c2cc(C(F)(F)F)cc(C(F)(F)F)c2)n(-c2ncc(C(=O)N(C)CC#N)s2)n1` [I-9], for which the “efficacy (infertile eggs)” value in experiment [1] is recorded as 100%. The compound also yielded a mortality at 100 ppm in experiment [2] of 100%. In addition, the mortality at 100 g/ha in experiment [6] was determined as 100%; in experiment [8], 90%; in experiment [7], 100%. Further, the mortality at 4 mg/m2 in experiment [3] lay within 80 to 100%. The mortality at 20 mg/m2 in experiment [3] is 80 to 100%.
`Cc1nc([C@H](C)NC(=O)c2cc(C(F)(F)F)cc(C(F)(F)F)c2)n(-c2ncc(C(N)=O)s2)n1` [I-21, 2-(5-{(1S)-1-[3,5-bis(trifluoromethyl)benzamido]ethyl}-3-methyl-1H-1,2,4-triazol-1-yl)-1,3-thiazole-5-carboxamide]: the mortality at 100 ppm in experiment [2] is 100%. The mortality at 100 g/ha in experiment [6] and in experiment [8] was 100% in each case. The mortality at 4 mg/m2 in experiment [3] lay in the range of 80 to 100%. The mortality at 20 mg/m2 in experiment [3] was 80 to 100%.
